Assay results as given in patent US20060148059A1, “Salt tolerant l-myo-inositol 1-phosphate synthase and the process of obtaining the same” (priority 2002, published 2006).
Read-outs that look alike come from different tables or passages of the source.

Columns and labels:
[1] = pH and temperature optimum of enzyme activity; assay type: biochemical
Procedure: The purified bacterially expressed RINO1 and PINO1 proteins were characterized for their biochemical properties (Table-1). […] For both the cases optimum enzyme activity was at 37° C. whereas optimum pH for Porteresia recombinant synthase (PINO1) was 8.0 and the same for Oryza recombinant synthase (RINO1) was 7.5.

[2] = not told
Procedure: FIG. 5: Gel filtration pattern on Superose-12 of RINO1 and PINO1 proteins in absence and presence of 400 mM NaCl. (A) RINO1 without NaCl; (B) RINO1 with NaCl; (C) PINO1 without NaCl; (D) PINO1 with NaCl. Insets depict SDS-PAGE and immuno dot blots of indicated fractions.

[3] = Tryptophan fluorescence in increasing NaCl concentrations; assay type: physicochemical; conditions: recombinant preparations
Procedure: FIG. 4: Tryptophan fluorescence of purified RINO1 (A) and PINO1 (B) proteins in increasing NaCl concentrations; tracing 1,2,3 & 4 correspond to 0, 100 mM, […] and 400 mM NaCl in the system.
Tryptophan Fluorescence spectra of the recombinant preparations of the inositol synthase(s) from Oryza sativa (RINO1) and Porteresia coarctata (PINO1) are shown in Panel A and B respectively in FIG. 4. […] The emission maxima in both the cases remain close to 336 nm.

[4] = system: Oryza sativa L-myo-inositol 1-phosphate synthase (RINO), native; conditions: data from RayChaudhury et al. (1997); cited from earlier work
[5] = Inositol synthase activity in presence of increasing NaCl concentration; assay type: biochemical; conditions: NaCl in vitro
Text: With respect to salt-sensitivity, RINO1 and PINO1 proteins differ a great deal.
FIG. 3: Inositol synthase activity in presence of increasing NaCl concentration for purified native (A) and recombinant (B) enzymes.

[6] = enzyme activity; data from RayChaudhury et al. (1997); cited from earlier work

Row | Compound | Temperature Optimum [1] [°C] | pH optimum [1] | Gel-permeation elution pattern on addition of salt [2] | Km [4] [µM] | Vmax [4] [μmol^−m] | salt-sensitivity of inositol synthase activity [5] | further results
1 | NC(=O)c1ccc[n+]([C@@H]2O[C@H](COP(=O)([O-])OP(=O)(O)OC[C@H]3O[C@@H](n4cnc5c(N)ncnc54)[C@H](O)[C@@H]3O)[C@@H](O)[C@H]2O)c1 [NAD] |  |  |  | 140 | 0.09 |  | 
2 | L-myo-inositol 1-phosphate synthase [RINO Native] |  |  |  |  |  | sensitive to NaCl | Temperature Optimum [6]: 35 °C; pH optimum [6]: 8.2
3 | O=P(O)(O)OC[C@H]1OC(O)[C@H](O)[C@@H](O)[C@@H]1O (stereo partly shown) [G6P, Glucose 6 phosphate] |  |  |  | 1970 | 0.07 |  | 

Further lines, with some results ahead:

Row | Temperature Optimum [1] [°C] | pH optimum [1] | Compound | Gel-permeation elution pattern on addition of salt [2] | Km [4] [µM] | Vmax [4] [μmol^−m] | salt-sensitivity of inositol synthase activity [5] | further results
4 | 37 | 8.0 | L-myo-inositol 1-phosphate synthase [PINO Recombinant] | elutes at the same place |  |  |  | Temperature Optimum ([1]; listed as PINO1): 37 °C; pH optimum ([1]; listed as PINO1): 8.0; Tryptophan fluorescence intensity in presence of added salt ([3]; listed as PINO1): rather insensitive
5 | 35 | 7.5 | L-myo-inositol 1-phosphate synthase [PINO Native] |  |  |  |  | 
6 | 37 | 7.5 | L-myo-inositol 1-phosphate synthase [RINO Recombinant] | substantial reduction in the original peak and concurrent appearance of a high molecular weight fraction |  |  | sensitive to NaCl | Temperature Optimum ([1]; listed as RINO1): 37 °C; pH optimum ([1]; listed as RINO1): 7.5; Tryptophan fluorescence intensity in presence of added salt ([3]; listed as RINO1): quenched significantly
